# Experimental data: patent publication US5545736A, “6-thiono-5,6-dihydro-dibenz[B,E] azepin-11-one-11-oximes” (Bayer Aktiengesellschaft, priority 1991, dated 1996)
# Like-named read-outs stand apart in the source and are kept apart here.
# Test system: HIV
# Experiment: HIV infection in cell culture (syncytia formation; PBLs or H9 cells)
# Type: cell-based
# Settings: read-out: IC50 (concentration at which 50% of the virus-induced syncytia were suppressed)
# Method: The HIV test was carried out with slight modifications according to the method of Pauwels et al. [cf. Journal of Virological Methods 20, (1988), 309-321].
# Normal human blood lymphocytes (PBLs) were concentrated by means of Ficoll-Hypaque and stimulated with phytohaemagglutinin (90 μg/ml) and interleukin-2 (40 U/ml) in RPMI 1640 and 20% foetal calf serum. For infection with the infectious HIV, PBLs were pelleted and the cell pellet was then suspended in 1 ml of HIV virus adsorption solution and incubated for 1 hour at 37° C.
# Alternatively, HIV-susceptible H9 cells were employed instead of normal human blood lymphocytes for testing the antiviral effects of the compounds according to the invention.
# The virus adsorption solution was centrifuged and the infected cell pellet was taken up in growth medium so that a concentration of 1×10^5 cells per ml was established. The cells infected in this way were pipetted into the wells of 96-well microtiter plates to give 1×10^4 cells/well.
# The first vertical row of the microtiter plate contained only growth medium and cells which had not been infected, but otherwise treated exactly as described above (cell control). The second vertical row of the microtiter plate contained only HIV-infected cells (virus control) in growth medium. The other wells contained the compounds according to the invention in differing concentrations, starting from the wells of the 3rd vertical row of the microtiter plate, from which the test substances were diluted 2^10 times in 2-fold steps.
# The test batches were incubated at 37° C. until, in the untreated virus control, the syncytia formation typical of HIV occurred (between day 3 and 6 after infection), which was then microscopically assessed. Under these test conditions, in the untreated virus control about 20-50 syncytia resulted, while the untreated cell control contained no syncytia.
# The IC50 values were determined as the concentration of the treated and infected cells at which 50% (about 10-20 syncytia) of the virus-induced syncytia were suppressed by treatment with the compound according to the invention.
# [1] = Human immunodeficiency virus 1, 72 h, HIV-infected PBLs or alternatively H9 cells, 37° C., read between day 3 and 6 after infection
IC50 [1],SMILES,"IC50 (Human immunodeficiency virus 1, H9, 72 h)"
,"Cc1ccnc2c1NC(=O)c1cccnc1N2C1CC1 [BIRG 587, reference compound]",90 nM
1500 nM,CN(C)CCON=c1c2cc(Cl)ccc2[nH]c(=S)c2ccccc12 [Example 2],
380 nM,S=c1[nH]c2ccc(Cl)cc2c(=NOCCN2CCOCC2)c2ccccc12 [Example 3],
380 nM,CON=c1c2cc(Cl)ccc2[nH]c(=S)c2ccccc12 [Example 4],
